Results on two sequences are retold here after patent publication US20120121574A1, “ANTIMICROBIAL, ANTIVIRAL, ANTICANCER AND IMMUNOMODULATORY PEPTIDES AND USES THEREFORE” (priority 2010, published 2012).

In general, EC50 refers to the concentration giving half of the maximal effect.

The test system of one test is C. albicans CA-6 strain. As to the kind of experiment: murine model of systemic candidiasis. It counts as in vivo, Balb/c mice.
In another test the test system is M. furfur 101 strain. Description: CFU assay against M. furfur. The format is cell-based, Malassezia furfur.
In the next test the test system is A. fumigatus 1163 strain. As to the kind of experiment: CFU assay against A. fumigatus conidia. It counts as cell-based, Aspergillus fumigatus.
For the next test, the system named is S. aureus 29213 strain. As to the kind of experiment: CFU assay against S. aureus. It counts as cell-based, Staphylococcus aureus. The protocol: In vitro activity of N10K against S. aureus 29213 strain. The microbicidal activity of N10K peptide against S. aureus has been evaluated by a conventional CFU assay. Cells of S. aureus 29213 have been incubated at 37° C. for 5 hours in the presence of N10K at the concentration of 50, 45 or 40 micrograms/ml, or in distilled water as control growth. After the incubation period, the cell suspensions have been plated on Mueller Hinton agar, then incubated at 37° C. and observed for CFU enumeration after 24 hours.
In vitro activity of T11F against S. aureus 29213 strain. The bactericidal activity of T11F peptide against S. aureus has been evaluated by a conventional CFU assay. Cells of S. aureus 29213 have been incubated at 37° C. for 5 hours in the presence of T11F at the concentration of 50, 40 or 30 micrograms/ml, or in distilled water as control growth. After the incubation period, the cell suspensions have been plated on Mueller Hinton agar, then incubated at 37° C. and observed for CFU enumeration after 24 hours.
In vitro activity of H4L against S. aureus 29213 strain. The bactericidal activity of H4L peptide against S. aureus has been evaluated by a conventional CFU) assay. […]
In vitro activity of MoA VHCDR3 against S. aureus 29213 strain. The microbicidal activity of MoA VHCDR3 peptide against S. aureus has been evaluated by a conventional CFU assay. […]

Test [1] has as its system E. coli ATCC 25922 strain. As to the kind of experiment: CFU assay against E. coli. The format is cell-based, Escherichia coli.
The subject of test [2] is K. pneumoniae ATCC 700603 strain. Description: CFU assay against K. pneumoniae. It counts as cell-based, Klebsiella pneumoniae.
Test [3] has as its system P. aeruginosa ATCC 25853 strain. Description: CFU assay against P. aeruginosa. It counts as cell-based, Pseudomonas aeruginosa.
Test [4] relates to peritoneal murine macrophages (PM). Description: in vitro immunomodulatory activity on murine peritoneal macrophages (PM). It counts as cell-based, mouse. The protocol:
In vitro immunomodulatory activity of MoA VHCDR3 on murine immune cells. FIGS. 47-51 are graphs showing TNF-α and IL-6 production by PM and PMN stimulated with MoA CDRs and mouse MoA VHCDR3 uptake by different cell populations. Cells were cultured in the presence or absence (NS) of human and/or mouse CDRs, lipopolisaccharide (LPS), or negative control peptide (NC) (all 10 micrograms/ml) for 18 hr. Both PM and PMN cell populations were 5×10^6/ml. After incubation, TNF-α and IL-6 levels were evaluated in culture supernatants by specific ELISA assays (* P<0.05 treated vs untreated cells, n=7). In FIG. 51, dendritic cells (DC), PM, PMN, and T cells (all 1×10^6/ml) were incubated for 1 hr in the presence or absence (NS) of biotinylated (b)-MoA VHCDR3 or b-NC (both 10 micrograms/ml). After incubation, permeabilized cells were reacted with FITC-labelled mAb to biotin (b) and analyzed by FACScan flow cytometry. Data are reported as the percentage of positive cells *, P<0.05 (b-VHCDR3 treated vs untreated cells, n=5). Error bars, s.e.m. FIGS. 52A and B show graphs and colored cell staining micrograph of kinetic of VHCDR3 uptake by PM. PM (1×10^6/ml) were incubated for different times with b-VHCDR3 or b-NC (all 10 micrograms/ml). After incubation, permeabilized cells were reacted with FITC-labelled mAb to biotin and analyzed by FACScan flow cytometry. Data are reported as the mean fluorescence intensity (MFI) and percentage of positive cells (FIG. 52A) (* P<0.05 b-VHCDR3-treated vs untreated cells, n=7). Error bars, s.e.m. In selected experiments, cells were incubated for 1 hr as above described, reacted with FITC-labelled mAb to biotin in the presence of Evans' Blue as a counter stain, and subsequently examined under fluorescent light microscopy (FIG. 52B). Note the green fluorescence of b-VHCDR3 treated cells. Original magnification 20×. In FIGS. 53 and 54 is shown the phospho-Akt activation and TNF-α production in PM stimulated with MoA VHCDR3. PM (3×10^6/ml) were stimulated for 1 hr in the presence or absence (NS) of MoA VHCDR3, LPS, an irrelevant control peptide (NC) or a scrambled peptide (SP) (all 10 micrograms/ml). After incubation, cell lysates were subjected to Western blotting. Membranes were incubated with Abs to pAkt and Akt; pAkt was normalized against Akt (FIG. 53)*, P<0.05 (treated vs untreated cells, n=5). […] PM (5×10^6/ml) were stimulated for 18 hr as above described. After incubation, TNF-α level was evaluated in culture supernatants by specific ELISA assays. (FIG. 54)*, P<0.05 (treated vs untreated cells, n=5). In FIGS. 55 and 56 is shown the phospho-IkBα activation and TNF-α gene expression in PM stimulated with MoA VHCDR3. PM (3×10^6/ml) were stimulated for 1 hr in the presence or absence (NS) of wortmannin (4 nM), MoA VHCDR3, LPS or NC (all 10 micrograms/ml). After incubation, cell lysates were subjected to Western blotting. Membranes were incubated with Abs to pIkBα and IkBα; pIkBα was normalized against IkBα. (FIG. 55)*, P<0.05 (treated versus untreated cells, n=5); †, P<0.05 (wortmannin-treated vs wortmannin-untreated cells, n=5). For testing the expression level of TNF-α gene, PM (1×10^6/ml) were cultured for 1, 6 and 18 hr as above described. After incubation, total RNA was isolated and analyzed for mRNA expression with RT-PCR (FIG. 56). Transcript copy numbers were determined by qPCR using cDNA as a template. Copy numbers were normalized against the copy number of the GADPH gene (B). […]

In the next test the test system is C. albicans cells. As to the kind of experiment: direct candidacidal activity in vitro (strain not stated). It counts as cell-based, Candida albicans.
The subject of test [5] is C. albicans SC5314 strain. The protocol: In vitro activity of N10K against C. albicans SC5314 strain. The candidacidal activity of N10K peptide against C. albicans was assessed by a conventional colony forming unit (CFU) assay as previously described (Polonelli et al., 2003; Manfredi et al., 2005). Briefly, cells of C. albicans SC5314 were incubated at 37° C. for 6 hours (hr) in the presence of N10K at the concentration indicated of 20, 12.5 or 6.25 microgram/ml, or in distilled water as control (C). After incubation, cell suspensions were plated on Sabouraud dextrose agar and incubated at 30° C. for 48 hours when CFU were counted (** P<0.01 for N10K treated versus untreated cells, by t test). […]
The alanine-substituted derivatives (asd), defined according to the position held by the alanine-substituted aminoacid, were tested against C. albicans by a conventional colony forming unit (CFU) as previously described (Polonelli et al., 2003). Briefly, cells of C. albicans SC5314 were incubated at 37° C. for 6 hours in the presence of N10K or N10K asd at different scalar concentrations or distilled water as control. After incubation, cell suspensions were plated on Sabouraud dextrose agar and incubated at 30° C. for 48 hours when CFU were counted. Based on several independent replications, the EC50 value of each peptide was calculated by nonlinear regression analysis using Graph Pad Prism 4.01 software, San Diego, Calif., USA. […]
In vitro microbicidal activity of N10K derivative with 2 amino acid substitutions, or 80% sequence identity with native N10K, namely peptide Seq Id. No. 25 was tested against Candida albicans SC5314 as determined by Colony Forming Unit assay.

A further test deals with Human monocytes. Description: in vitro immunomodulatory activity on human monocytes. The settings on record: 10 micrograms/ml, 18 hr, ELISA. It counts as cell-based. In general terms: ELISA stands for enzyme-linked immunosorbent assay.
[6] abbreviates: peptide 100 micrograms/ml, 5 hours 37° C.

Where no end group is shown, it is not given here.

Protocol for A. fumigatus 1163 strain: After the incubation period, the conidial suspensions have been plated on Sabouraud dextrose agar, then incubated at 30° C. and observed for CFU enumeration after 48 hours.
After the incubation period, the cell suspensions have been plated on Sabouraud dextrose agar, then incubated at 30° C. and observed for CFU enumeration after 48 hours.
Protocol for C. albicans CA-6 strain: CFU recovery from the kidneys of mice was determined 7 and 12 days after fungal infection.
Mice were infected intravenously with the opportunistic fungus C. albicans and treated with mouse VHCDR3 or VLCDR3 (used as a negative control) intraperitoneally 4 hr before (200 micrograms), and 1 (100 micrograms) and 2 (100 micrograms) days after infection. Animal survival and fungal burden in kidneys were evaluated in different groups of mice. […] Error bars, s.e.m.
Protocol for Human monocytes: Human monocytes or PMN (both 10×10^6/ml) were incubated in RPMI 1640 plus 10% FCS for 18 hr or 6 hr respectively in the presence or in the absence (NS) of LPS, negative control (NC) and peptides (all 10 micrograms/ml). After incubation culture supernatants were collected and tested for cytokines production by specific ELISA. […] Monocytes were incubated for 30 minutes in presence or absence (NS) of NC or N10K (both 10 micrograms/ml) or Cytochalasin D (30 μM). After incubation cells have been stimulated for 30 minutes with non opsonized h.i. […] The percentage of phagocytosis (FIG. 18A) and the medium number of yeast particles adhered or ingested by each monocyte (phagocytic index) (FIG. 18B) have been determined by cytofluorimetric analysis. […] PBMC have been incubated 30 minutes in presence or absence (NS) of NC or N10K (both 10 micrograms/ml). After incubation PBMC have been stimulated for 18 h with LPS (10 micrograms/ml) or h.i. […] The levels of IL-12p40 and IL-6 have been evaluated in the supernatants by ELISA Kit.
After incubation culture supernatants were collected and tested for cytokines production by specific ELISA. […]
Protocol for M. furfur 101 strain: After the incubation period, the cell suspensions were plated on Sabouraud dextrose agar added with Tween 20 (1%), then incubated at 30° C. and observed for CFU enumeration after 72 hours.
After the incubation period, the cell suspensions have been plated on Sabouraud dextrose agar added with Tween 20 (1%), then incubated at 30° C. and observed for CFU enumeration after 72 hours.

In the case of “G Q Y G N L W F A Y (GQYGNLWFAY) [MoA VHCDR3, CDR3 fragment of the H chain of a murine IgM mAb directed to difucosyl human blood group A substance]”, the Activity result is given as “Indirectly” in the test on C. albicans CA-6 strain (Table III, in vivo, Fungus, for MoAVHCDR3 the wrapped cell reads Indirectly cidal up regulation of TNF-α, TLR-4); “cidal” in the test with M. furfur 101 strain (Table III, in vitro); “cidal” in the test with A. fumigatus 1163 strain (Table III, in vitro); “cidal” in the test with S. aureus 29213 strain (Table III, in vitro); “cidal” in test [1] (Table III, in vitro); “cidal” in test [2] (Table III, in vitro). Further, the Activity entry in test [3] (Table III, in vitro) was “cidal”. In addition, the “CFU recovery from kidneys” value in the test with C. albicans CA-6 strain (intraperitoneally 200 micrograms 4 hr before, 100 micrograms 1 and 2 days after infection, 5, 7 and 12 days after infection, versus negative control mice) was “impressive decrease”. Besides, the “survival of infected mice” value with C. albicans CA-6 strain (intraperitoneally 200 micrograms 4 hr before, 100 micrograms 1 and 2 days after infection, versus untreated or MoA VLCDR3 treated) is listed as “significant increase in survival”. Further, the “fungicidal activity (CFU)” value was “showed fungicidal activity” with M. furfur 101 strain (peptide 100 micrograms/ml, 6 hours 30° C.) and “showed fungicidal activity” in the test with A. fumigatus 1163 strain (peptide 100 micrograms/ml, 18 hours 30° C.). Further, the “bactericidal activity (CFU)” value (with S. aureus 29213 strain (setting [6]); in test [1] (setting [6]); in [2] (setting [6]); in test [3] (setting [6])) was “showed bactericidal activity” each time. In [4] (10 micrograms/ml), the TLR-4 expression entry was “up-regulates TLR-4”. In test [4] (10 micrograms/ml, 1 hr, Western blotting), the “Akt activation (phospho-Akt)” value is “induces Akt activation”. Also, the “TNF-α production by PM” value in test [4] (10 micrograms/ml, ELISA) is reported as “stimulate PM to produce TNF-α”. In addition, the “TNF-α mRNA” value in test [4] (1 hr post stimulation, 10 micrograms/ml) is given as “detected”. Moreover, the “Activity (Stimulation of TNF-α, IL-6)” value in [4] (Table III, in vitro, Immune cells) is recorded as “Stimulation”. Further, the “activity against C. albicans cells in vitro” value in the test on C. albicans cells is listed as “ineffective”.

Take “NAVSLTCLVK [asd Q2A N10K, N A V S L T C L V K]”: in test [5] (SC5314, 6 h), the concentration for a half-maximal effect (EC50) is 2300 nM. Further, the EC50asd/EC50N10K in [5] (Table IX) turned out to be 2.30. In addition, the “IL-6 production by human monocytes” value in the test with Human monocytes is recorded as “strong enhancement”.
